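Five concentrations, 48 hours, 96-well plates. GI50 marks 50% less growth.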 Active and inactive are the calls of the source. No stated cut-off is given here; in the data, active = GI50 up to about 1.1 µM and inactive = higher.

The source of these data is ChEMBL document CHEMBL1201862, “PubChem BioAssay data set” (2004).

Some test systems named below: A498; A549; HOP-62; IGROV-1; M14; MOLT-4; Malme-3M; NCI-H23; NCI-H460; OVCAR-3; OVCAR-8; SF-295; SF-539; SK-MEL-28; SK-MEL-5; SNB-75; SW-620; U-251; UACC-257; LOX IMVI.
Common to all, as to assay: DTP human tumour cell line panel, 48 h

Turning to `CN(C)C/C=C(/c1ccc(Br)cc1)c1cccnc1`, the GI50 in the test with A498 is 20.3 µM (inactive); in the test with A549, 81.8 µM (inactive); in the test with HOP-62, 45 µM (inactive); with IGROV-1, > 100 µM (inactive); with M14, 20.2 µM (inactive); in the test on MOLT-4, 47.9 µM (inactive). The GI50 is 20.2 µM (inactive) with Malme-3M; > 100 µM (inactive) with NCI-H23; 81.3 µM (inactive) in the test on NCI-H460; > 100 µM (inactive) in the test with OVCAR-3; > 100 µM (inactive) in the test on OVCAR-8; 22.2 µM (inactive) in the test with SF-295. The GI50 is > 100 µM (inactive) in the test with SF-539; 17.9 µM (inactive) with SK-MEL-28; 19.7 µM (inactive) in the test with SK-MEL-5; 51.5 µM (inactive) in the test on SNB-75; > 100 µM (inactive) with SW-620; 98.4 µM (inactive) in the test with U-251. In the test with UACC-257, the GI50 is 18.2 µM (inactive).

As for `O=C1CN(c2ccccc2)C(=O)C1C(=O)Nc1ccc(Cl)c(Cl)c1` (centres undefined), the GI50 with A549 is 2.72 µM (inactive); in the test with HOP-62, 2.22 µM (inactive); with IGROV-1, 2.33 µM (inactive); in the test on M14 it was 1.79 µM (inactive); in the test on MOLT-4, 2.33 µM (inactive); with NCI-H23, 7.31 µM (inactive). Besides, the GI50 in the test on OVCAR-3 was 3.15 µM (inactive); in the test with SF-295, 3.72 µM (inactive); in the test with SF-539, 3.85 µM (inactive); in the test with SK-MEL-28, 7.43 µM (inactive); in the test on SK-MEL-5 it was 1.36 µM (inactive); with SNB-75 it was 0.973 µM (active). In addition, the figures for the GI50 in the test with SW-620, in the test on U-251 and with UACC-257 were 1.21 µM (inactive), 3.78 µM (inactive) and 8.28 µM (inactive), respectively.

As to `CO/C(=N/N1CC1C(F)(F)F)c1ccncc1` (centres undefined), the GI50 was > 100 µM (inactive) in the test on A498; > 100 µM (inactive) with HOP-62; > 100 µM (inactive) in the test with IGROV-1; > 100 µM (inactive) in the test with M14; 30.8 µM (inactive) in the test with MOLT-4; > 100 µM (inactive) in the test with Malme-3M. The GI50 with NCI-H23, with NCI-H460, with OVCAR-3, in the test with OVCAR-8, in the test on SF-295 and with SK-MEL-28 was > 100 µM (inactive) each time. In addition, the GI50 in the test on SK-MEL-5, in the test on SNB-75 and with U-251 was > 100 µM (inactive) in each case.

As for `Cc1ccc([N+](=O)[O-])cc1/N=N/C(=O)NNc1cc([N+](=O)[O-])ccc1C`, the GI50 in the test with A498 was 21.4 µM (inactive); with HOP-62, 26.4 µM (inactive); in the test on IGROV-1, > 10 µM (inactive); with M14, 18.9 µM (inactive); in the test on MOLT-4, 9.29 µM (inactive); with Malme-3M, 37.6 µM (inactive). Besides, the GI50 in the test with NCI-H23 was 48.9 µM (inactive); with NCI-H460, > 10 µM (inactive); in the test with OVCAR-3, 18.1 µM (inactive); with OVCAR-8 it was 27 µM (inactive); in the test with SF-295, 17.9 µM (inactive); in the test with SK-MEL-28, 26.8 µM (inactive). Besides, the GI50 is 17.8 µM (inactive) in the test on SK-MEL-5, 21.3 µM (inactive) in the test with SNB-75 and 32.9 µM (inactive) with U-251.

For the molecule `CCN(CC)CCN(C(=O)C(C)(C)C)c1ccccc1N`, the GI50 in the test on A549, in the test on HOP-62, with IGROV-1, with M14, in the test on MOLT-4 and in the test with Malme-3M was > 100 µM (inactive) throughout. The GI50 in the test on NCI-H23, with NCI-H460, in the test on OVCAR-3, in the test with OVCAR-8, with SF-295 and in the test on SF-539 was > 100 µM (inactive) each time. For the same molecule, the GI50 in the test with SK-MEL-28, in the test on SK-MEL-5, with SNB-75, with SW-620, with U-251 and with UACC-257 was > 100 µM (inactive) each time.

For `O=C1OC(c2ccc(Cl)cc2)(c2ccc(Cl)cc2)c2c1ccc1ccccc21`, the GI50 in the test on A498 was > 100 µM (inactive); in the test with A549, > 100 µM (inactive); with IGROV-1, > 100 µM (inactive); in the test on LOX IMVI, > 100 µM (inactive); in the test with MOLT-4, 39.4 µM (inactive); in the test on Malme-3M it was > 100 µM (inactive). Further, the GI50 in the test with NCI-H23 was 8.67 µM (inactive); in the test on NCI-H460, > 100 µM (inactive); in the test with OVCAR-3 it was > 100 µM (inactive); in the test on OVCAR-8, > 100 µM (inactive); with SF-295, > 100 µM (inactive); in the test with SK-MEL-28, > 100 µM (inactive). For the same molecule, the GI50 was 52.5 µM (inactive) in the test on SK-MEL-5; 36.7 µM (inactive) in the test with SNB-75; > 100 µM (inactive) in the test with SW-620; > 100 µM (inactive) in the test with U-251; > 100 µM (inactive) in the test on UACC-257.

As to `c1ccc(/N=C2/SC3=Nc4cccc5cccc(c45)N3/C2=N/c2ccccc2)cc1`, the GI50 with A498 was > 100 µM (inactive); with HOP-62, > 100 µM (inactive); in the test with IGROV-1, > 100 µM (inactive); in the test on M14, > 100 µM (inactive); in the test on MOLT-4, 79.3 µM (inactive); in the test on Malme-3M, > 100 µM (inactive). Further, the GI50 with NCI-H23, in the test with NCI-H460, in the test with OVCAR-3, in the test with OVCAR-8, in the test on SF-295 and in the test with SK-MEL-28 was > 100 µM (inactive) in each case. For the same molecule, the GI50 with SK-MEL-5, with SNB-75 and with U-251 was > 100 µM (inactive) in each case.

As for `Cc1cc2c(C(C)C)c(O)c(O)c(/C=N/c3ccccc3)c2c(O)c1-c1c(C)cc2c(C(C)C)c(O)c(O)c(/C=N/c3ccccc3)c2c1O`, the GI50 in the test on A549, with HOP-62, with IGROV-1, with LOX IMVI, in the test on M14 and in the test with MOLT-4 was > 100 µM (inactive) each time. In addition, the GI50 in the test on Malme-3M, in the test with NCI-H460, in the test with OVCAR-3, in the test on OVCAR-8, in the test with SF-295 and in the test on SF-539 was > 100 µM (inactive) in each case. The values for the GI50 in the test with SK-MEL-28, with SNB-75 and in the test on SW-620 were > 100 µM (inactive), 67.8 µM (inactive) and > 100 µM (inactive), respectively.

In the case of `COc1ccc2c(C)cc(N/N=C/c3sccc3C)nc2c1`, the GI50 in the test on A549 was 13.3 µM (inactive); in the test on HOP-62, 15.2 µM (inactive); in the test on IGROV-1, 5.82 µM (inactive); in the test with LOX IMVI, 7.59 µM (inactive); in the test on M14, 11.8 µM (inactive); in the test on MOLT-4, 13.5 µM (inactive). Moreover, the GI50 in the test with Malme-3M was 6.95 µM (inactive); with NCI-H23, 14.7 µM (inactive); with OVCAR-3 it was 2.99 µM (inactive); with OVCAR-8, 13.4 µM (inactive); in the test on SF-295 it was 14.7 µM (inactive); with SF-539 it was 14.3 µM (inactive). The GI50 in the test on SK-MEL-28 was 14.8 µM (inactive); with SK-MEL-5 it was 6.24 µM (inactive); in the test with SNB-75, 12.1 µM (inactive); with SW-620 it was 21.6 µM (inactive); in the test on U-251, 17.9 µM (inactive); in the test on UACC-257, 10.1 µM (inactive).

Consider `Clc1ccc2c(c1)CC1C[N+]3=C(CCCCC3)C1=C2` (centres undefined), for which the GI50 was 18.3 µM (inactive) with A498; 30.3 µM (inactive) with A549; > 100 µM (inactive) with HOP-62; 37.2 µM (inactive) in the test on IGROV-1; 43.3 µM (inactive) with LOX IMVI; 57.3 µM (inactive) with M14. In addition, the GI50 with MOLT-4 is > 100 µM (inactive); in the test with Malme-3M, 63 µM (inactive); with NCI-H23, 37.4 µM (inactive); with NCI-H460, 33 µM (inactive); with OVCAR-3, 59 µM (inactive); with OVCAR-8, 28.3 µM (inactive). Moreover, the GI50 in the test with SF-295 is 64.1 µM (inactive); with SK-MEL-28, > 100 µM (inactive); in the test on SK-MEL-5, 30.3 µM (inactive); with SNB-75, 0.349 µM (active); in the test on SW-620 it was > 100 µM (inactive); with U-251 it was 23.7 µM (inactive). Moreover, in the test on UACC-257, the GI50 was 28.8 µM (inactive).

`COC(=O)c1cccc(C(=O)OC)c1`: the GI50 with A498, with A549, in the test on HOP-62, in the test on LOX IMVI, in the test on M14 and in the test on MOLT-4 was > 100 µM (inactive) each time. The GI50 in the test on Malme-3M, in the test on NCI-H23, in the test with NCI-H460, with SF-295, with SK-MEL-28 and in the test with SNB-75 was > 100 µM (inactive) throughout. For the same molecule, the GI50 with SW-620, with U-251 and in the test with UACC-257 was > 100 µM (inactive) throughout.

Consider `CCOC(=O)NC(=O)c1cn(CCSCCOC(=O)NCCCCCCNC(=O)OCCSCCn2cc(C(=O)NC(=O)OCC)c(=O)[nH]c2=O)c(=O)[nH]c1=O`, for which the GI50 in the test with A549, in the test on HOP-62, with IGROV-1, in the test with LOX IMVI, in the test on M14 and with Malme-3M was > 100 µM (inactive) throughout. The GI50 in the test on NCI-H23, in the test on NCI-H460, with OVCAR-3, in the test on OVCAR-8, in the test with SF-295 and in the test on SF-539 was > 100 µM (inactive) each time. For the same molecule, the GI50 in the test with SK-MEL-28, in the test on SK-MEL-5, with SNB-75, with SW-620, in the test on U-251 and with UACC-257 was > 100 µM (inactive) throughout.
